Assay results taken from article PMC10794144, “A novel antibiotic class targeting the lipopolysaccharide transporter” (Nature, 2024).
Values after ≈ are worked out from the molar mass of the structure shown. Where two headings read alike, the source gives them in different places.

Assays:
A. baumannii = assay: microbe, parasite or virus in culture; conditions: Acinetobacter baumannii, 100%
Procedure, shortened: (§1)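 MIC was taken as the lowest concentration without visible growth, or past which OD600 no longer fell. Testing followed CLSI M07 and M100 broth microdilution, using 0.5 McFarland-derived inocula in CAMHB (LB for A. baylyi isolates).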

E. coli ATCC 25922 = assay: microbe, parasite or virus in culture; conditions: for MIC: Escherichia coli
Procedure, shortened: as §1

`C[C@@H](O)[C@H]1C(=O)N2C(C(=O)O)=C(S[C@@H]3CN[C@H](C(=O)N(C)C)C3)[C@H](C)[C@H]12` [meropenem, reference compound] was tested, and the MIC (A. baumannii; read-out: MIC 100%, ROB08708, Study LGC295147) was 32 µg/mL (≈ 83.4 µM), the MIC (A. baumannii; read-out: MIC 100%, ROB08708, Study LGC296813) was 32 µg/mL (≈ 83.4 µM) and the MIC (A. baumannii; read-out: MIC 100%, ROB08708, Study LGC299544) was 32 µg/mL (≈ 83.4 µM). For the same molecule, the MIC (A. baumannii; read-out: MIC 100%, ROB08708, Study LGC301026) was 32 µg/mL (≈ 83.4 µM), the MIC (A. baumannii; read-out: MIC 100%, ROB08708, Study LGC308175) was 64 µg/mL (≈ 167 µM) and the MIC (A. baumannii; read-out: MIC 100%, ROB08708, Study ROC004) was 32 µg/mL (≈ 83.4 µM). For the same molecule, the MIC (A. baumannii; read-out: MIC 100%, ROB08708, Study ROC005) was 16 µg/mL (≈ 41.7 µM), the MIC (A. baumannii; read-out: MIC 100%, ROB08708, Study ROC006) was 64 µg/mL (≈ 167 µM) and the MIC (A. baumannii; read-out: MIC 100%, ROB08708, Study ROC007) was 16 µg/mL (≈ 41.7 µM). The MIC (A. baumannii; read-out: MIC 100%, ROB08708, Study ROC008) was 16 µg/mL (≈ 41.7 µM), the MIC (A. baumannii; read-out: MIC 100%, ROB08708, Study ROC009) was 32 µg/mL (≈ 83.4 µM) and the MIC (A. baumannii; read-out: MIC 100%, ROB08708, Study ROC010) was 16 µg/mL (≈ 41.7 µM). The MIC (A. baumannii; read-out: MIC 100%, ROB08708, Study ROC012) was 16 µg/mL (≈ 41.7 µM), the MIC (A. baumannii; read-out: MIC 100%, ROB08708, Study ROC013) was 32 µg/mL (≈ 83.4 µM) and the MIC (A. baumannii; read-out: MIC 100%, ROB08709, Study LGC277937) was 32 µg/mL (≈ 83.4 µM). The MIC (A. baumannii; read-out: MIC 100%, ROB08709, Study LGC279800) was 32 µg/mL (≈ 83.4 µM), the MIC (A. baumannii; read-out: MIC 100%, ROB08709, Study LGC281440) was 32 µg/mL (≈ 83.4 µM) and the MIC (A. baumannii; read-out: MIC 100%, ROB08709, Study LGC282160) was 16 µg/mL (≈ 41.7 µM). The MIC (A. baumannii; read-out: MIC 100%, ROB08709, Study LGC282623) was 32 µg/mL (≈ 83.4 µM), the MIC (A. baumannii; read-out: MIC 100%, ROB08709, Study LGC283932) was 32 µg/mL (≈ 83.4 µM) and the MIC (A. baumannii; read-out: MIC 100%, ROB08709, Study LGC284200) was 32 µg/mL (≈ 83.4 µM). For the same molecule, the MIC (A. baumannii; read-out: MIC 100%, ROB08709, Study LGC284879) was 32 µg/mL (≈ 83.4 µM), the MIC (A. baumannii; read-out: MIC 100%, ROB08709, Study LGC285582) was 32 µg/mL (≈ 83.4 µM) and the MIC (A. baumannii; read-out: MIC 100%, ROB08709, Study LGC286210) was 32 µg/mL (≈ 83.4 µM). The MIC (A. baumannii; read-out: MIC 100%, ROB08709, Study LGC293598) was 32 µg/mL (≈ 83.4 µM), the MIC (A. baumannii; read-out: MIC 100%, ROB08709, Study LGC294355) was 32 µg/mL (≈ 83.4 µM) and the MIC (A. baumannii; read-out: MIC 100%, ROB08709, Study LGC295147) was 16 µg/mL (≈ 41.7 µM). It also gave an MIC (A. baumannii; read-out: MIC 100%, ROB08709, Study LGC296813) of 16 µg/mL (≈ 41.7 µM), an MIC (A. baumannii; read-out: MIC 100%, ROB08709, Study LGC299544) of 32 µg/mL (≈ 83.4 µM) and an MIC (A. baumannii; read-out: MIC 100%, ROB08709, Study LGC301026) of 16 µg/mL (≈ 41.7 µM). It also gave an MIC (A. baumannii; read-out: MIC 100%, ROB08709, Study LGC308175) of 32 µg/mL (≈ 83.4 µM), an MIC (A. baumannii; read-out: MIC 100%, ROB08709, Study ROC004) of 64 µg/mL (≈ 167 µM) and an MIC (A. baumannii; read-out: MIC 100%, ROB08709, Study ROC005) of 16 µg/mL (≈ 41.7 µM). The MIC (A. baumannii; read-out: MIC 100%, ROB08709, Study ROC006) was 64 µg/mL (≈ 167 µM), the MIC (A. baumannii; read-out: MIC 100%, ROB08709, Study ROC007) was 16 µg/mL (≈ 41.7 µM) and the MIC (A. baumannii; read-out: MIC 100%, ROB08709, Study ROC008) was 16 µg/mL (≈ 41.7 µM). It also gave an MIC (A. baumannii; read-out: MIC 100%, ROB08709, Study ROC009) of 16 µg/mL (≈ 41.7 µM), an MIC (A. baumannii; read-out: MIC 100%, ROB08709, Study ROC010) of 16 µg/mL (≈ 41.7 µM) and an MIC (A. baumannii; read-out: MIC 100%, ROB08709, Study ROC012) of 16 µg/mL (≈ 41.7 µM). It also gave an MIC (A. baumannii; read-out: MIC 100%, ROB08709, Study ROC013) of 32 µg/mL (≈ 83.4 µM), an MIC (A. baumannii; read-out: MIC 100%, ROB08710, Study LGC277937) of 64 µg/mL (≈ 167 µM) and an MIC (A. baumannii; read-out: MIC 100%, ROB08710, Study LGC279800) of 64 µg/mL (≈ 167 µM). The MIC (A. baumannii; read-out: MIC 100%, ROB08710, Study LGC281440) was 32 µg/mL (≈ 83.4 µM), the MIC (A. baumannii; read-out: MIC 100%, ROB08710, Study LGC282160) was 64 µg/mL (≈ 167 µM) and the MIC (A. baumannii; read-out: MIC 100%, ROB08710, Study LGC282623) was 32 µg/mL (≈ 83.4 µM). The MIC (A. baumannii; read-out: MIC 100%, ROB08710, Study LGC283932) was 32 µg/mL (≈ 83.4 µM), the MIC (A. baumannii; read-out: MIC 100%, ROB08710, Study LGC284200) was 32 µg/mL (≈ 83.4 µM) and the MIC (A. baumannii; read-out: MIC 100%, ROB08710, Study LGC284879) was 32 µg/mL (≈ 83.4 µM). The MIC (A. baumannii; read-out: MIC 100%, ROB08710, Study LGC285582) was 32 µg/mL (≈ 83.4 µM), the MIC (A. baumannii; read-out: MIC 100%, ROB08710, Study LGC286210) was 32 µg/mL (≈ 83.4 µM) and the MIC (A. baumannii; read-out: MIC 100%, ROB08710, Study LGC293598) was 32 µg/mL (≈ 83.4 µM). The MIC (A. baumannii; read-out: MIC 100%, ROB08710, Study LGC294355) was 32 µg/mL (≈ 83.4 µM), the MIC (A. baumannii; read-out: MIC 100%, ROB08710, Study LGC295147) was 64 µg/mL (≈ 167 µM) and the MIC (A. baumannii; read-out: MIC 100%, ROB08710, Study LGC296813) was 32 µg/mL (≈ 83.4 µM). The MIC (A. baumannii; read-out: MIC 100%, ROB08710, Study LGC299544) was 64 µg/mL (≈ 167 µM), the MIC (A. baumannii; read-out: MIC 100%, ROB08710, Study LGC301026) was 32 µg/mL (≈ 83.4 µM) and the MIC (A. baumannii; read-out: MIC 100%, ROB08710, Study LGC308175) was 32 µg/mL (≈ 83.4 µM). It also gave an MIC (A. baumannii; read-out: MIC 100%, ROB08710, Study ROC004) of 32 µg/mL (≈ 83.4 µM), an MIC (A. baumannii; read-out: MIC 100%, ROB08710, Study ROC005) of 32 µg/mL (≈ 83.4 µM) and an MIC (A. baumannii; read-out: MIC 100%, ROB08710, Study ROC006) of 64 µg/mL (≈ 167 µM). For the same molecule, the MIC (A. baumannii; read-out: MIC 100%, ROB08710, Study ROC007) was 64 µg/mL (≈ 167 µM), the MIC (A. baumannii; read-out: MIC 100%, ROB08710, Study ROC008) was 32 µg/mL (≈ 83.4 µM) and the MIC (A. baumannii; read-out: MIC 100%, ROB08710, Study ROC009) was 64 µg/mL (≈ 167 µM). The MIC (A. baumannii; read-out: MIC 100%, ROB08710, Study ROC010) was 32 µg/mL (≈ 83.4 µM), the MIC (A. baumannii; read-out: MIC 100%, ROB08710, Study ROC012) was 32 µg/mL (≈ 83.4 µM) and the MIC (A. baumannii; read-out: MIC 100%, ROB08710, Study ROC013) was 32 µg/mL (≈ 83.4 µM). The MIC (E. coli ATCC 25922; ATCC25922) was no more than 0.06 µg/mL, the MIC (E. coli ATCC 25922; ATCC25922, read-out: MIC 100%) was no more than 0.06 µg/mL and the “MIC 100%” value (E. coli ATCC 25922; Study LGC277937) was no more than 0.06 mg/L. For the same molecule, the “MIC 100%” value (E. coli ATCC 25922; Study LGC279800) was no more than 0.06 mg/L, the “MIC 100%” value (E. coli ATCC 25922; Study LGC281440) was no more than 0.06 mg/L and the “MIC 100%” value (E. coli ATCC 25922; Study LGC282160) was no more than 0.06 mg/L. The “MIC 100%” value (E. coli ATCC 25922; Study LGC282623) was no more than 0.06 mg/L, the “MIC 100%” value (E. coli ATCC 25922; Study LGC283932) was no more than 0.06 mg/L and the “MIC 100%” value (E. coli ATCC 25922; Study LGC284200) was no more than 0.06 mg/L. For the same molecule, the “MIC 100%” value (E. coli ATCC 25922; Study LGC284879) was no more than 0.06 mg/L, the “MIC 100%” value (E. coli ATCC 25922; Study LGC285582) was no more than 0.06 mg/L and the “MIC 100%” value (E. coli ATCC 25922; Study LGC286210) was no more than 0.06 mg/L. The “MIC 100%” value (E. coli ATCC 25922; Study LGC293598) was no more than 0.06 mg/L, the “MIC 100%” value (E. coli ATCC 25922; Study LGC294355) was no more than 0.06 mg/L and the “MIC 100%” value (E. coli ATCC 25922; Study LGC295147) was no more than 0.06 mg/L. For the same molecule, the “MIC 100%” value (E. coli ATCC 25922; Study LGC296813) was no more than 0.06 mg/L, the “MIC 100%” value (E. coli ATCC 25922; Study LGC299544) was no more than 0.06 mg/L and the “MIC 100%” value (E. coli ATCC 25922; Study LGC301026) was no more than 0.06 mg/L. For the same molecule, the “MIC 100%” value (E. coli ATCC 25922; Study LGC308175) was no more than 0.06 mg/L, the “MIC 100%” value (E. coli ATCC 25922; Study ROC003) was no more than 0.06 mg/L and the “MIC 100%” value (E. coli ATCC 25922; Study ROC004) was no more than 0.06 mg/L. For the same molecule, the “MIC 100%” value (E. coli ATCC 25922; Study ROC005) was no more than 0.06 mg/L, the “MIC 100%” value (E. coli ATCC 25922; Study ROC006) was no more than 0.06 mg/L and the “MIC 100%” value (E. coli ATCC 25922; Study ROC007) was no more than 0.06 mg/L. For the same molecule, the “MIC 100%” value (E. coli ATCC 25922; Study ROC008) was no more than 0.06 mg/L, the “MIC 100%” value (E. coli ATCC 25922; Study ROC009) was no more than 0.06 mg/L and the “MIC 100%” value (E. coli ATCC 25922; Study ROC010) was no more than 0.06 mg/L. For the same molecule, the “MIC 100%” value (E. coli ATCC 25922; Study ROC013) was no more than 0.06 mg/L.
